Measurements from ChEMBL document CHEMBL1687865, “Antifungal lipopeptides from Bacillus amyloliquefaciens strain BO7” (J Nat Prod, 2011).
In brackets after ≈: the same amount, converted by molar mass. *1 amine or outer side, *2 acyl side, *3 side chain or, on linkers, in order; H or OH if unused. Where a SMILES comes first, the peptide text is derived from it. Bridges are numbered along the chain shown (N, C = ends). X1 = CCCCCCCCCCCCCCC[C@H](CC(=O)[*:1])O[*:2]; X2 = CCCCCCCCCCCCCC[C@H](CC(=O)[*:1])O[*:2]; X3 = CCCCCCCCCCCCC[C@H](CC(=O)[*:1])O[*:2]

Legend:
[1] = Antifungal activity against Fusarium oxysporum f. sp. lycopersici 4287 assessed as reduction in mycelium growth at 100 ppm after 72 hrs by spectrophotometric analysis; format: functional; parameters: scale not given: the % may be the effect or the level left
[2] = Antifungal activity against Fusarium oxysporum f. sp. lycopersici 4287 assessed as reduction in mycelium growth at 50 ppm after 72 hrs by spectrophotometric analysis; format: functional; parameters: scale not given: the % may be the effect or the level left
[3] = system: Penicillium digitatum; assay: […] activity against Penicillium digitatum; format: functional, organism-based

EC50 [3] | Structure (SMILES) | Activity [1] | Activity [2]
– | CCCCCCCCCCCCC[C@@H]1CC(=O)N[C@@H](CCC(=O)O)C(=O)N[C@@H](CC(C)C)C(=O)N[C@@H](CC(C)C)C(=O)N[C@@H](C)C(=O)N[C@@H](CC(=O)O)C(=O)N[C@@H](CC(C)C)C(=O)N[C@@H](CC(C)C)C(=O)O1 (ELLADLL; linker N-C via X3) | 29% | –
88.5 µg/mL (≈ 84.2 µM) | CCCCCCCCCCCCCCC[C@@H]1CC(=O)N[C@@H](CCC(=O)O)C(=O)N[C@@H](CC(C)C)C(=O)N[C@@H](CC(C)C)C(=O)N[C@@H](C)C(=O)N[C@@H](CC(=O)O)C(=O)N[C@@H](CC(C)C)C(=O)N[C@@H](CC(C)C)C(=O)O1 (ELLADLL; linker N-C via X1) | 56% | 25%
– | CCCCCCCCCCCCCC[C@@H]1CC(=O)N[C@@H](CCC(=O)O)C(=O)N[C@@H](CC(C)C)C(=O)N[C@@H](CC(C)C)C(=O)N[C@@H](C)C(=O)N[C@@H](CC(=O)O)C(=O)N[C@@H](CC(C)C)C(=O)N[C@@H](CC(C)C)C(=O)O1 (ELLADLL; linker N-C via X2) | 11% | –
